Results taken from patent US11932609B1 (priority 2023, dated 2024).

| melting point [°C] | SMILES |
| --- | --- |
| 120 to 121 | CCOC(=O)C1=C(C)NC(Nc2ccc(Br)cc2)=NC1c1ccc(F)cc1 (centres unmarked) [DHPM-KNV2, Ethyl 2-((4-bromophenyl)amino)-4-(4-fluorophenyl)-6-methyl-1,4-dihydropyrimidine-5-carboxylate] |
| 188 to 189 | CCOC(=O)C1=C(C)NC(Nc2ccc(Cl)cc2)=NC1c1ccc(F)cc1 (centres unmarked) [DHPM-KNV3, Ethyl 2-((4-chlorophenyl)amino)-4-(4-fluorophenyl)-6-methyl-1,4-dihydropyrimidine-5-carboxylate] |
| 175 to 176 | CCOC(=O)C1=C(C)NC(Nc2ccc3ncsc3c2)=NC1c1ccc(F)cc1 (centres unmarked) [DHPM-KNV7, Ethyl 2-(benzo[d]thiazol-6-ylamino)-4-(4-fluorophenyl)-6-methyl-1,4-dihydropyrimidine-5-carboxylate] |
| 213 to 214 | CCOC(=O)C1=C(C)NC(Nc2ccc(C(F)(F)F)cc2OC)=NC1c1ccc(F)cc1 (centres unmarked) [DHPM-KNV9, Ethyl 4-(4-fluorophenyl)-2-((2-methoxy-4-(trifluoromethyl)phenyl)amino)-6-methyl-1,4-dihydropyrimidine-5-carboxylate] |
| 176 to 177 | CCOC(=O)C1=C(C)NC(Nc2ccc(Cl)c(C(F)(F)F)c2)=NC1c1ccc(F)cc1 (centres unmarked) [DHPM-KNV5, Ethyl 2-((4-chloro-3-(trifluoromethyl)phenyl)amino)-4-(4-fluorophenyl)-6-methyl-1,4-dihydropyrimidine-5-carboxylate] |

Further lines, the compound ahead of its results:

| SMILES | melting point [°C] |
| --- | --- |
| CCOC(=O)C1=C(C)NC(Nc2ccc(C(C)C)cc2)=NC1c1ccc(F)cc1 (centres unmarked) [DHPM-KNV4, Ethyl 4-(4-fluorophenyl)-2-((4-isopropylphenyl)amino)-6-methyl-1,4-dihydropyrimidine-5-carboxylate] | 125 to 126 |
| CCOC(=O)C1=C(C)NC(Nc2ccccc2I)=NC1c1ccc(F)cc1 (centres unmarked) [DHPM-KNV8, Ethyl 4-(4-fluorophenyl)-2-((2-iodophenyl)amino)-6-methyl-1,4-dihydropyrimidine-5-carboxylate] | 229 to 230 |
| CCOC(=O)C1=C(C)NC(Nc2ccccc2)=NC1c1ccc(F)cc1 (centres unmarked) [DHPM-KNV1, Ethyl 4-(4-fluorophenyl)-6-methyl-2-(phenylamino)-1,4-dihydropyrimidine-5-carboxylate] | 92 to 93 |
